# Assay results published in patent publication EP0038567A1, “Deazapurine nucleoside, formulations thereof, and use thereof in therapy” (THE WELLCOME FOUNDATION LIMITED, priority 1980, dated 1981).
# Read-outs that look alike come from different tables or passages of the source.
# Experiments:
# Half life = conditions: in vivo
# Analgesic activity = assay type: in vivo; conditions: per se
# [1] = tested on: carrageenan pleurisy (3 hour pleural exudate volume); assay: Carrageenan Pleurisy Assay (CPA), acute anti-inflammatory activity, oral dosing; assay type: in vivo; conditions: for ED50: po, dose reducing the 3 hour exudate volume by 50%, p.o., 5 animals per group, read-out: ED50 3 hr. vol. p.o.
# Experimental: Following the procedure previously described by Vinegar et al. in Proc. Soc. Exp. Biol. Med., 143, 711, (1973) as recently modified /Vinegar et al., Eur. J. Rheum. Inflamm., 1, 204 (1978)/ the acute anti-inflammatory activity of 3-deazaadenosine was compared with that of known anti-inflammatory drugs. The average 3 hour exudate volume for each drug treated group was determined and the % inhibition relative to solvent-fed control animals calculated, the ED 50 (mg/kg body weight) being the dose required to reduce the 3 hour exudate volume by 50%. There were 5 animals in each drug-treated group and the control group.
# By means of the Carrageenan Pleurisy Assay of Example 1 the duration of action of the tests compounds after a single oral pretreating dose was determined. For 3-deazaadenosine the effect lasted for 14.9 hours at 6 mg/kg (p.o.) whilst for aspirin (150 mg/kg p.o.) and acetaminophen (220 mg/kg p.o.) the effect lasted for […] and 2 hours respectively. This value represents the time (hours) of drug administration prior to the injection of carrageenan in which the inhibition of the 3 hour pleural exudate volume declined to 40%.
# [2] = tested on: carrageenan pleurisy (3 hr. exudate volume); assay: Carrageenan Pleurisy Assay (CPA), local (intra-pleural) anti-inflammatory activity; assay type: in vivo; conditions: read-out: ED50 3 hr. vol. local (intra-pleural)
# Description: Following the procedure described by Vinegar et al. /Eur. J. Rheum. […] There were 5 animals in each drug-treated group and the control group.
# adjuvant arthritis = assay: Adjuvant arthritis, developing and established, arthritic joint scores; assay type: in vivo; conditions: Rattus norvegicus, rats; for ED25: feed or water, 1008 h, drug in diet from day 21 to 42; for ED50: po, 384 h, drug in diet from day 1 to day 16
# Experimental: The effect of 3-deazaadenosine in rats againt both developing and established adjuvant arthritis was determined by the method described by R. Vinegar et al. Journal of Immunopharmacology. 1, 483, (I979). The scoring procedure of A.L.F. Currey and M. Ziff, J. Exp. Med., 121, 185 (1968) was used to assess the arthritic joint scores of rats. There were 5 animals in each drug-treated group. For developing adjuvant arthritis the drugs were administered in the diet from day 1 to day 16. For established adjuvant arthritis the drugs were administered from day 21 to 42.
# cyclooxygenase = assay: Prostaglandin metabolism in vitro, cyclooxygenase pathway; assay type: biochemical
# lipoxygenase = assay: Prostaglandin metabolism in vitro, lipoxygenase pathway; assay type: biochemical
# immune response = conditions: earlier disclosed activity (UK Patent Application No. 40447/78); cited from earlier work
# Therapeutic index = conditions: in vivo
# [3] = earlier disclosed activity (US Patent No. 4 148 888); cited from earlier work
# liver = assay: Liver damage in animal models; assay type: in vivo; conditions: animal models used
# Water solubility = assay type: physicochemical
# Antipyretic activity = conditions: in vivo
smiles,measurement,setting,value
"Nc1nccc2c1ncn2[C@@H]1O[C@H](CO)[C@@H](O)[C@H]1O [3-Deazaadenosine, 4-amino-1-β-D-ribofuranosyl-1H-imidazo-[4,5-c]-pyridine]",half life,Half life,short half life
same,analgesic activity,Analgesic activity,no analgesic activity
same,duration of action,"[1]; general statement in the description, no dose given",about 15 hours
same,ED50,[1],2.8 ± 0.65 mg/kg
same,duration of action,"[1]; single oral pretreating dose 6 mg/kg (p.o.), time before carrageenan at which inhibition of 3 hour pleural exudate volume declined to 40%",14.9 h
same,ED50,"[2]; local (intra-pleural) administration, 5 animals per group",0.05 mg/kg
same,ED25,adjuvant arthritis,~18 mg/kg/day
same,ED50,adjuvant arthritis,8 ± 2.8 mg/kg
same,"inhibition of prostaglandin metabolism, cyclooxygenase pathway",cyclooxygenase,does not inhibit
same,"inhibition of prostaglandin metabolism, lipoxygenase pathway",lipoxygenase,does not inhibit
same,dose required for immunesuppression,immune response,more than 30 mg/kg
same,therapeutic index,Therapeutic index,high therapeutic index
same,dose required for antiviral activity,[3],100-200 mg/kg per day
same,liver damage,liver,does not cause liver damage
same,water solubility,Water solubility,high water solubility
same,antipyretic activity,Antipyretic activity,not antipyretic
CC(=O)Oc1ccccc1C(=O)O [Aspirin],ED50,[1],28 ± 3.2 mg/kg
same,duration of action,"[1]; single oral pretreating dose 150 mg/kg p.o., time before carrageenan at which inhibition of 3 hour pleural exudate volume declined to 40%",35 h
same,ED50,[2],0.04 mg/kg
same,ED25,adjuvant arthritis,150 mg/kg/day
same,ED50,adjuvant arthritis,150 ± 53.1 mg/kg
C[C@]12CCC(=O)C=C1CC[C@@H]1[C@@H]2[C@@H](O)C[C@@]2(C)[C@H]1CC[C@]2(O)C(=O)CO [Hydrocortisone],ED50,[1],14 ± 10.2 mg/kg
same,ED50,[2],0.1 mg/kg
C[C@]12C=CC(=O)C=C1CC[C@@H]1[C@@H]2[C@@H](O)C[C@@]2(C)[C@H]1CC[C@]2(O)C(=O)CO [Prednisolone],ED50,[1],3 ± 0.5 mg/kg
same,ED25,adjuvant arthritis,0.2 mg/kg/day
same,ED50,adjuvant arthritis,1 ± 0.7 mg/kg
CC(=O)Nc1ccc(O)cc1 [acetaminophen],duration of action,"[1]; single oral pretreating dose 220 mg/kg p.o., time before carrageenan at which inhibition of 3 hour pleural exudate volume declined to 40%",2 h
